# Results as given in BindingDB's records for doi:10.1021/acs.jmedchem.9b00506 (Rapt Therapeutics, 2019).
# Test: Antagonist activity at CCR4 in human CCRF-CEM cells assessed as inhibition of CCL22-mediated chemotaxis in presence of 100% human serum pre-incubated for 30 mins followed by CCL22 addition and measured after 60 mins by chemoTX probe based CellTiter-Glo assay
row,IC50,Compound
1,638 nM,C[C@@H]1CC(c2cnc3c(C#N)nn([C@H](C)c4ccc(Cl)cc4Cl)c3n2)=CC[C@@H]1N1CCC[C@H]1CN
2,44 nM,C[C@@H]1CC(c2cnc3c(C#N)nn([C@H](C)c4ccc(Cl)cc4Cl)c3n2)=CC[C@@H]1N1CCC[C@H]1C
3,70 nM,C[C@@H]1CC(c2cnc3c(C#N)nn([C@H](C)c4ccc(Cl)cc4Cl)c3n2)=CC[C@@H]1N1CCC[C@H]1CO
4,1380 nM,C[C@@H]1CC(c2cnc3c(C#N)nn([C@H](C)c4ccc(Cl)cc4Cl)c3n2)=CC[C@@H]1N1CCC[C@H]1C(N)=O

# Further lines, the compound ahead of its results:
row,Compound,IC50
1,Cc1nn([C@H](C)c2ccc(Cl)cc2Cl)c2nc(N3CC[C@H](N4CCC[C@H]4CCS(N)(=O)=O)[C@H](C)C3)cnc12,259 nM
2,Cc1nn([C@H](C)c2ccc(Cl)cc2Cl)c2nc(N3CC[C@H](N4CCCCC4)[C@H](C)C3)cnc12,361 nM
3,C[C@@H]1CC(c2cnc3c(C#N)nn([C@H](C)c4ccc(Cl)cc4Cl)c3n2)=CC[C@@H]1N1CCC[C@H]1C(C)(C)O,1200 nM
4,Cc1nn([C@H](C)c2ccc(Cl)cc2Cl)c2nc(N3CC[C@H](N4CCC[C@H]4CCC(N)=O)[C@H](C)C3)cnc12,355 nM
5,Cc1nn([C@H](C)c2ccc(Cl)cc2Cl)c2nc(N3CC[C@H](N4CCC[C@H]4CCC#N)[C@H](C)C3)cnc12,865 nM
6,Cc1nn([C@H](C)c2ccc(Cl)cc2Cl)c2nc(C3=CC[C@H](N4CCC[C@H]4CO)[C@H](C)C3)cnc12,179 nM

# Test: Antagonist activity at CCR4 in anti-CD3/CD28 stimulated mouse Treg cells assessed as inhibition of CCL22-mediated chemotaxis in presence of 100% human serum pre-incubated for 30 mins followed by CCL22 addition and measured after 60 mins by chemoTX probe based CellTiter-Glo assay
row,Compound,IC50
1,C[C@@H]1CC(c2cnc3c(C#N)nn([C@H](C)c4ccc(Cl)cc4Cl)c3n2)=CC[C@@H]1N1CCC[C@H]1C,325 nM
2,C[C@@H]1CC(c2cnc3c(C#N)nn([C@H](C)c4ccc(Cl)cc4Cl)c3n2)=CC[C@@H]1N1CCC[C@H]1CO,165 nM
